From the supplement of paper PMC11061612

Columns and labels:
Experiment in all cases: Bliss excess, mean over the matrix (fraction); higher = more synergy
[1] = tested on: SW756 (Cervical Carcinoma)
Outline: (§1)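 After 24 hours at 37°C and 5% CO2 in 1536-well plates, cells in DMEM/F12 or RPMI plus 10% FBS received two-drug dose matrices for 72 hours. Viability came from CellTiter-Glo 2.0 luminescence and was scaled as inhibition, anchored at 0 by vehicle wells and at 1 by blank wells. Combination Emax is taken as the second-highest inhibition in the matrix, and Bliss excess as the observed combination effect less EA + EB − EA·EB, with EA and EB the single-agent effects.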

[2] = tested on: SW1088 (Low Grade Glioma)
Outline: as §1

[3] = tested on: COR-L23 (Non-Small Cell Lung Carcinoma)
Outline: as §1

[4] = tested on: TGBC24TKB (Biliary Tract Carcinoma)
Outline: as §1

J82 (Bladder Carcinoma) = tested on: J82 (Bladder Carcinoma)
Outline: as §1

CAL-78 (Chondrosarcoma) = tested on: CAL-78 (Chondrosarcoma)
Outline: as §1

[5] = tested on: CTV-1 (T-Lymphoblastic Leukemia)
Outline: as §1

[6] = tested on: KARPAS-620 (Plasma Cell Myeloma)
Outline: as §1

[7] = tested on: U-266 (Plasma Cell Myeloma)
Outline: as §1

[8] = tested on: HT-29 (Colorectal Carcinoma)
Outline: as §1

IGR-1 (Melanoma) = tested on: IGR-1 (Melanoma)
Outline: as §1

[9] = tested on: MDA-MB-231 (Breast Carcinoma)
Outline: as §1

[10] = tested on: NCI-H1793 (Lung Adenocarcinoma)
Outline: as §1

[11] = tested on: CFPAC-1 (Pancreatic Carcinoma)
Outline: as §1

[12] = tested on: SW1990 (Pancreatic Carcinoma)
Outline: as §1

[13] = tested on: SNU-C5 (Colorectal Carcinoma)
Outline: as §1

[14] = tested on: KATOIII (Gastric Carcinoma)
Outline: as §1

[15] = tested on: COR-L95 (Small Cell Lung Carcinoma)
Outline: as §1

[16] = tested on: LU-99A (Non-Small Cell Lung Carcinoma)
Outline: as §1

[17] = tested on: HCC2157 (Breast Carcinoma)
Outline: as §1

`CC1(C)CCC(CN2CCN(c3ccc(C(=O)NS(=O)(=O)c4ccc(NCC5CCOCC5)c([N+](=O)[O-])c4)c(Oc4cnc5[nH]ccc5c4)c3)CC2)=C(c2ccc(Cl)cc2)C1` [Venetoclax] + C[C@@H]1COCCN1C2=NC(=NC(=C2)C3(CC3)[S@](=N)(=O)C)C4=C5C=CNC5=NC=C4 [AZD6738] (first compound max 1 µM, 7x7, partner max 10 µM) was tested, and the Bliss excess [1] was -0.0249, the Bliss excess [2] was -0.0327 and the Bliss excess [3] was -0.0392. For the same compound, the Bliss excess [4] was -0.0188, the Bliss excess (J82 (Bladder Carcinoma)) was 0.0106 and the Bliss excess (CAL-78 (Chondrosarcoma)) was 0.0138. For the same compound, the Bliss excess [5] was -0.0067, the Bliss excess [6] was 0.0235 and the Bliss excess [7] was -0.0402. It also gave a Bliss excess [8] of -0.0215, a Bliss excess (IGR-1 (Melanoma)) of 0.0165 and a Bliss excess [9] of -0.0312. It also gave a Bliss excess [10] of 0.0073, a Bliss excess [11] of 0.015 and a Bliss excess [12] of -0.0556. The Bliss excess [13] was -0.0289, the Bliss excess [14] was -0.0859 and the Bliss excess [15] was -0.0056. It also gave a Bliss excess [16] of -0.0278 and a Bliss excess [17] of 0.0204.
With `CC1(C)CCC(CN2CCN(c3ccc(C(=O)NS(=O)(=O)c4ccc(NCC5CCOCC5)c([N+](=O)[O-])c4)c(Oc4cnc5[nH]ccc5c4)c3)CC2)=C(c2ccc(Cl)cc2)C1` [Venetoclax] + C[C@@H](Nc1cc(F)cc(F)c1)c1cc(C(=O)N(C)C)cc2c(=O)cc(N3CCOCC3)oc12 [AZD8186] (first compound max 1 µM, 7x7, partner max 3 µM) the Bliss excess [1] was -0.0452, the Bliss excess [2] was -0.0044 and the Bliss excess [3] was -0.0328. It also gave a Bliss excess [4] of -0.0202, a Bliss excess (J82 (Bladder Carcinoma)) of -0.0213 and a Bliss excess (CAL-78 (Chondrosarcoma)) of -0.0152. The Bliss excess [5] was 0.0057, the Bliss excess [6] was -0.0022 and the Bliss excess [7] was 0.0357. The Bliss excess [8] was -0.0255, the Bliss excess (IGR-1 (Melanoma)) was -0.0471 and the Bliss excess [9] was -0.0066. The Bliss excess [10] was 0.0197, the Bliss excess [11] was 0.0034 and the Bliss excess [12] was -0.0255. It also gave a Bliss excess [13] of -0.0308, a Bliss excess [14] of -0.0555 and a Bliss excess [15] of 0.095. It also gave a Bliss excess [16] of -0.0412 and a Bliss excess [17] of 0.115.
For `CC1(C)CCC(CN2CCN(c3ccc(C(=O)NS(=O)(=O)c4ccc(NCC5CCOCC5)c([N+](=O)[O-])c4)c(Oc4cnc5[nH]ccc5c4)c3)CC2)=C(c2ccc(Cl)cc2)C1` [Venetoclax] + Cc1cc2ncnn2cc1Nc1ncc2c(n1)n(C1CCOCC1)c(=O)n2C [AZD7648] (first compound max 1 µM, 7x7, partner max 10 µM), the Bliss excess [1] was 0.0031, the Bliss excess [2] was -0.105 and the Bliss excess [3] was -0.0351. The Bliss excess [4] was 0.0423, the Bliss excess (J82 (Bladder Carcinoma)) was -0.0202 and the Bliss excess (CAL-78 (Chondrosarcoma)) was 0.0236. The Bliss excess [5] was -0.0249, the Bliss excess [6] was 0.0454 and the Bliss excess [7] was 0.0148. It also gave a Bliss excess [8] of 0.0077, a Bliss excess (IGR-1 (Melanoma)) of -0.0287 and a Bliss excess [9] of 0.0192. The Bliss excess [10] was -0.042, the Bliss excess [11] was -0.0359 and the Bliss excess [12] was -0.0426. The Bliss excess [13] was -0.0233, the Bliss excess [14] was -0.0076 and the Bliss excess [15] was -0.039. The Bliss excess [16] was -0.0437 and the Bliss excess [17] was 0.0602.
`CC1(C)CCC(CN2CCN(c3ccc(C(=O)NS(=O)(=O)c4ccc(NCC5CCOCC5)c([N+](=O)[O-])c4)c(Oc4cnc5[nH]ccc5c4)c3)CC2)=C(c2ccc(Cl)cc2)C1` [Venetoclax] + Cn1cnc2c(F)c(Nc3ccc(Br)cc3Cl)c(C(=O)NOCCO)cc21 [Selumetinib] (first compound max 1 µM, 7x7, partner max 3 µM) gave a Bliss excess [1] of -0.0537, a Bliss excess [2] of -0.0407 and a Bliss excess [3] of -0.0182. For the same compound, the Bliss excess [4] was -0.0103, the Bliss excess (J82 (Bladder Carcinoma)) was -0.028 and the Bliss excess (CAL-78 (Chondrosarcoma)) was -0.0619. It also gave a Bliss excess [5] of -0.0173, a Bliss excess [6] of 0.16 and a Bliss excess [7] of 0.0137. It also gave a Bliss excess [8] of -0.0261, a Bliss excess (IGR-1 (Melanoma)) of -0.0405 and a Bliss excess [9] of -0.0277. For the same compound, the Bliss excess [10] was -0.0096, the Bliss excess [11] was -0.0142 and the Bliss excess [12] was -0.0656. For the same compound, the Bliss excess [13] was -0.0248, the Bliss excess [14] was -0.0235 and the Bliss excess [15] was -0.0265. For the same compound, the Bliss excess [16] was -0.0484 and the Bliss excess [17] was -0.006.
